# Assay results as given in patent US12280168B2, “Method for sanitization of a chromatography column” (Cytiva Sweden AB, priority 2019, dated 2025).
# Experiments:
# Type in all cases: cell-based
# [1] = system: Pseudomonas aeruginosa, ATCC 9027; assay: Sanitization study 1: AxiChrom 300 column packed with resin inoculated with challenging organism, sanitized with peracetic acid
# Experimental: (§1) A predefined sanitization method based on peracetic acid (PAA) as sanitization agent was evaluated in an AxiChrom™ 300 column (GE Healthcare) packed with agarose beads, as used in the MabSelect™ SuRe Protein A resin (GE Healthcare), by triplicate studies using P. aeruginosa as challenging organism. All parts in contact with the process flow including the resin were pre-cleaned, challenged, sanitized and evaluated. Microbial sampling was performed at predetermined sites on the system. Flow through samples were collected from the process chamber during the run and from the flush channel, process chamber and resin valve after finishing the sanitization method. Additional flow through samples were collected after five to six days of clean hold. Test methods used are presented below. The results were evaluated against stated acceptance criteria.
# (§2) Pseudomonas aeruginosa, ATCC 9027, Gram negative bacteria
# (§3) 1×10^7 CFU/ml or CFU/unit (CFU=Colony forming unit) […]
# (§4) TSA plates streaked with P. aeruginosa ATCC 9027 (in-house glycerol stocks) were incubated in 37° C. over night (O.N.). […] O.N. Based on measured optical densities (ODs) of the inoculates and the assumption that 1 OD≈2×10^9 CFU/mL for P. aeruginosa, calculations were made on the volumes needed of the inoculate to be added to the resin slurry suspended in 50 mM NaCl. […] The microorganism concentrations were determined with test method 5. […]
# [2] = system: Pseudomonas aeruginosa, ATCC 9027; assay: Sanitization study 3: dual adapter strokes, 100 mM PAA in flush channel, resin valve opened and closed twice, 6 day clean hold
# Experimental: as §1, §2, §3, §4
# [3] = system: Pseudomonas aeruginosa, ATCC 9027; assay: Sanitization study 2: dual adapter strokes, 100 mM PAA in flush channel, slurry chased with 20 mM PAA, 5 day clean hold
# Experimental: as §1, §2, §3, §4
compound,measurement,setting,value
"CC(=O)OO [PAA, peracetic acid]","Outcome against acceptance criteria, study 1",[1],did not meet the acceptance criteria
same,"Result study 1, resin after sanitization","[1]; test method 6 agar plate, 20 mM PAA",0 CFU/g
same,"Outcome against acceptance criteria, study 3",[2],met the acceptance criteria
same,"Challenging organism found after sanitization, study 3",[2]; all sampling points,no challenging organism was discovered
same,"Outcome against acceptance criteria, study 2",[3]; positive control G showed no challenging organism,did meet the acceptance criteria
same,"Result study 2, challenging organism in consolidation effluent / water rinse flowthrough after chasing slurry with 20 mM PAA","[3]; test method 5 viable count, samples G and J, before the sanitization method",0 CFU/mL
